Results: PMC5557489, “Computational and experimental analysis of short peptide motifs for enzyme inhibition” (PLoS ONE, 2017)
Read-outs that look alike come from different tables or passages of the source. Ends that are not written are not given here.

Molecular target: T1, β-galactosidase (β-Gal) (Escherichia coli, UniProt P00722)
T1 construct: purchased Sigma (St. Louis, MO)
Assay: biochemical
Assay type: biochemical
Method: Solution-based enzyme assays were performed on SpectraMax M5 96 well plate readers (Molecular Device, Sunnyvale, CA) as described previously.[13] Briefly, peptides were first incubated with enzyme for 20 minutes, then the substrate solution was added into the wells to measure the enzyme activity, including at least three replicates per peptide. The β-gal catalyzed hydrolysis of RBG was fluorescently monitored at 590 nm (resorufin) with the excitation at 540 nm. The velocity of the reaction was determined by the initial velocity of the linear reaction. The IC50 of each inhibitor was determined by fitting the concentration vs. inhibition curve to the function ‘Fit LogIC50’ as defined in the program GraphPad Prism 7 using the fitting equation “Y = Bottom+(Top-Bottom)/(1+10^(X-LogIC50))”.
The enzyme inhibition was also quantitatively characterized using the inhibition percentage that was calculated using the following equation: Inhibition Percentage = (Activityuninhibited− Activityinhibited)/ Activityuninhibited× 100% […]
Fluorescein di-β-D-galactopyranoside (FDG), resorufin β-D-galactopyranoside (RBG) and Alexa Fluor 647 (Alexa 647) were purchased from Invitrogen (Eugene, OR). Phenylethyl β-D-thiogalactoside (PETG), β-galactosidase (β-Gal), phosphate buffered saline (PBS) and tris buffered saline (TBS) were obtained from Sigma (St. Louis, MO). A 4 mg/mL stock solution of β-Gal was prepared in 10 mM potassium phosphate buffer with 0.1 mM MgCl2 at pH 7.4. A 2 mg/mL stock solution of peptide was first prepared in pure water, and then diluted in phosphate buffer to the desired concentration. Custom peptides were purchased from Sigma.

T1 sequence (P00722 2-1024): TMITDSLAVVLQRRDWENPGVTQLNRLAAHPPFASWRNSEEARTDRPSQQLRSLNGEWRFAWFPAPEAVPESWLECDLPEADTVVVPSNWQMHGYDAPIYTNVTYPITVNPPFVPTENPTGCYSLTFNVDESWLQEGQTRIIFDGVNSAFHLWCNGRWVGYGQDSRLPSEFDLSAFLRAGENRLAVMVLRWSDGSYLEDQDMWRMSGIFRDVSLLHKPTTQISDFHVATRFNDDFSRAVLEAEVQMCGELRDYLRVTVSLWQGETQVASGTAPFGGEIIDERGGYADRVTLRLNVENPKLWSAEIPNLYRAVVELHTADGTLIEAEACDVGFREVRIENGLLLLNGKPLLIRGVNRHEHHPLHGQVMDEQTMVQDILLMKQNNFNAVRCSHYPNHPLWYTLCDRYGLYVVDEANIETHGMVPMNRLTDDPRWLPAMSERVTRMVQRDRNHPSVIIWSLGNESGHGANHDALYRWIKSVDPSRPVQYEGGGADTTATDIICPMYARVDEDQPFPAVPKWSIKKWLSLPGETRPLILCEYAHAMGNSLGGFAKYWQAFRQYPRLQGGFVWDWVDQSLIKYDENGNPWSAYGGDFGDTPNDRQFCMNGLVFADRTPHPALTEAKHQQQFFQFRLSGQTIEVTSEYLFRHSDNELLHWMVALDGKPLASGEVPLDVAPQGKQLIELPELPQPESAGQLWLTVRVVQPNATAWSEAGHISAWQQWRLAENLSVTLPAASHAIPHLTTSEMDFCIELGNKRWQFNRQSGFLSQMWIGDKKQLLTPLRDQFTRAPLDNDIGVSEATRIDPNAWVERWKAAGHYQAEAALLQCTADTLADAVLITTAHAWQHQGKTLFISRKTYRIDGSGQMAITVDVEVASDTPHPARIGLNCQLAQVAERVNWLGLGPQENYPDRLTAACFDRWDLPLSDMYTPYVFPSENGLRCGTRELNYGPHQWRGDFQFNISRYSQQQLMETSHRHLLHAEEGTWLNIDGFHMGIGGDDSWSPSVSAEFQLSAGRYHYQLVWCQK

Molecule	IC50	also measured
OC[C@H]1O[C@@H](SCCc2ccccc2)[C@H](O)[C@@H](O)[C@@H]1O [PETG, phenylethyl β-D-thiogalactoside, reference compound]		IC50 (Fig 1, 100 μM RBG, β-Gal 150 μg/L, 25°C, three replicates, lead peptides previously selected from microarray [13], read-out: IC50 of peptide inhibition of β-Gal): ~35 µM
FKRYKRWGSC [nPEP-1]	~4 µM	
FKRYRRWGSC [nPEP-1-45]	~2.5 µM	
KKQGYYYKLGSC [shorter C-terminus motif of PEP-2 from truncation analysis]		normalized inhibition of β-Gal, truncation scan of PEP-2 (Fig 3B, normalized to the inhibition percentage value of PEP-2 at 50 μM, three replicates): inhibited β-Gal
PASMFSYFKKQGYYYKLGSC [PEP-2]	~13 µM	
RVFKRYKRWLHVSRYYFGSC [PEP-1]	~1.6 µM	
